Source: ChEMBL document CHEMBL5321234, “Discovery of Thieno[3,2-d]pyrimidine derivatives as potent and selective inhibitors of ataxia telangiectasia mutated and Rad3 related (ATR) kinase” (Eur J Med Chem, 2023)

Tests used:
[1] = Cmax in ICR mouse at 1 mg/kg, iv measured upto 24 hrs by LC-MS/MS analysis; type: ADME, organism-based; set-up: time < 24 hrs, dose 1 mg/kg, route iv; settings: in vivo
[2] = biological target: Serine/threonine-protein kinase mTOR (Homo sapiens, UniProt P42345); test: Inhibition of mTOR (unknown origin)
[3] = Initial plasma concentration in ICR mouse at 1 mg/kg, iv measured upto 24 hrs by LC-MS/MS analysis; type: ADME, organism-based
[4] = Cmax in ICR mouse at 10 mg/kg, po measured upto 24 hrs by LC-MS/MS analysis; type: ADME, organism-based; set-up: time < 24 hrs, dose 10 mg/kg, route po; settings: in vivo
[5] = MRT (0 to infinity) in ICR mouse at 1 mg/kg, iv measured upto 24 hrs by LC-MS/MS analysis; type: ADME, organism-based; settings: in vivo, iv, 1 mg/kg, 24 h
LoVo [6] = test: Antitumor activity against human LoVo cells xenografted in BALB/c mouse assessed as tumor growth inhibition at 50 mg/kg, po bid administered for 21 consecutive days relative to control; type: functional; settings: 504 h, time 21 day, read-out: TGI
[7] = AUC (0 to t) in ICR mouse at 1 mg/kg, iv measured upto 24 hrs by LC-MS/MS analysis; type: ADME, organism-based; set-up: dose 1 mg/kg, time < 24 hrs, route iv; settings: in vivo
[8] = Acute toxicity in ICR mouse assessed as mortality at 2000 mg/kg, po measured after 14 days; type: organism-based; settings: in vivo, 336 h, time 14 day
Cytochrome P450 1A2 = biological target: T1, Cytochrome P450 1A2 (Homo sapiens, UniProt P05177); test: Inhibition of CYP1A2 (unknown origin); type: ADME
T1 sequence (P05177 whole entry): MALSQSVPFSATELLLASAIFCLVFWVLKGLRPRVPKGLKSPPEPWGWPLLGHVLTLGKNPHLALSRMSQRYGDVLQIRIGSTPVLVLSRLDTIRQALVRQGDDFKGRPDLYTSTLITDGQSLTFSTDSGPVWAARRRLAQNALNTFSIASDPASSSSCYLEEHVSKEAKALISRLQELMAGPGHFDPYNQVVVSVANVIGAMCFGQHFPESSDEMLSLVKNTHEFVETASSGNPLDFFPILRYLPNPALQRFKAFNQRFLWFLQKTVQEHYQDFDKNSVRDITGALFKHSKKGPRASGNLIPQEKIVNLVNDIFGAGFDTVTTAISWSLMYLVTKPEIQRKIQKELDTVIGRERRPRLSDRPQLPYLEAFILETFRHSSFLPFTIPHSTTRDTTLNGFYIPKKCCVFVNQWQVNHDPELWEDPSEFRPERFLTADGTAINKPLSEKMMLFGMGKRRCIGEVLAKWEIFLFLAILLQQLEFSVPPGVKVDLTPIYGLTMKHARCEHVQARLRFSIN

[9] = Clearance in ICR mouse at 1 mg/kg, iv measured upto 24 hrs by LC-MS/MS analysis; type: ADME, organism-based; settings: in vivo, iv, 1 mg/kg, 24 h
[10] = Inhibition of DNA-PK (unknown origin); set-up: species or system Homo sapiens
[11] = biological target: Serine/threonine-protein kinase ATR (Homo sapiens, UniProt Q13535); test: Inhibition of ATR (unknown origin)
[12] = MRT (0 to infinity) in ICR mouse at 10 mg/kg, po measured upto 24 hrs by LC-MS/MS analysis; type: ADME, organism-based; settings: in vivo
[13] = Toxicity in ICR male mouse assessed as mortality at 2000 mg/kg, po measured after 14 days; type: organism-based; settings: in vivo, 336 h, time 14 day
HT-29 [14] = test: Antiproliferative activity against human HT-29 cells in presence of AZD1390 incubated for 72 hrs by CCK-8 assay; type: functional, cell-based; settings: HT-29, 72 h
[15] = Half life in ICR mouse at 10 mg/kg, po measured upto 24 hrs by LC-MS/MS analysis; type: ADME, organism-based; settings: in vivo
HT-29 [16] = test: Antiproliferative activity against human HT-29 cells incubated for 72 hrs by CCK-8 assay; type: functional, cell-based; settings: HT-29, 72 h
[17] = Tmax in ICR mouse at 1 mg/kg, iv measured upto 24 hrs by LC-MS/MS analysis; type: ADME, organism-based; settings: in vivo
[18] = Half life in ICR mouse at 1 mg/kg, iv measured upto 24 hrs by LC-MS/MS analysis; type: ADME, organism-based; settings: in vivo
[19] = MRT (0 to t) in ICR mouse at 10 mg/kg, po measured upto 24 hrs by LC-MS/MS analysis; type: ADME, organism-based; settings: in vivo
[20] = Oral bioavailability in ICR mouse at 10 mg/kg measured upto 24 hrs by LC-MS/MS analysis; type: ADME, organism-based; settings: in vivo
LoVo [21] = test: Antiproliferative activity against human LoVo cells incubated for 72 hrs by CCK-8 assay; type: functional, cell-based
[22] = MRT (0 to t) in ICR mouse at 1 mg/kg, iv measured upto 24 hrs by LC-MS/MS analysis; type: ADME, organism-based; settings: in vivo
[23] = Toxicity in ICR mouse assessed as body weight change at 2000 mg/kg, po measured after 14 days; type: organism-based; settings: in vivo, 336 h, time 14 day
[24] = Volume of distribution at steady state in ICR mouse at 1 mg/kg, iv measured upto 24 hrs by LC-MS/MS analysis; type: ADME, organism-based; settings: in vivo, iv, 1 mg/kg, 24 h
[25] = AUC (0 to t) in ICR mouse at 10 mg/kg, po measured upto 24 hrs by LC-MS/MS analysis; type: ADME, organism-based; set-up: dose 10 mg/kg, time < 24 hrs, route po; settings: in vivo
[26] = AUC (0 to infinity) in ICR mouse at 10 mg/kg, po measured upto 24 hrs by LC-MS/MS analysis; type: ADME, organism-based; set-up: dose 10 mg/kg, time < 24 hrs, route po; settings: in vivo
[27] = Toxicity in po dosed ICR mouse assessed as mortality measured after 14 days; type: organism-based; settings: in vivo, time 14 day
LoVo [28] = test: Antitumor activity against human LoVo cells xenografted in BALB/c mouse assessed as tumor growth inhibition at 50 mg/kg, po qd administered for 21 consecutive days relative to control; type: functional; settings: 504 h, time 21 day, read-out: TGI
[29] = Tmax in ICR mouse at 10 mg/kg, po measured upto 24 hrs by LC-MS/MS analysis; type: ADME, organism-based; settings: in vivo
[30] = AUC (0 to infinity) in ICR mouse at 1 mg/kg, iv measured upto 24 hrs by LC-MS/MS analysis; type: ADME, organism-based; set-up: dose 1 mg/kg, time < 24 hrs, route iv; settings: in vivo
Cytochrome P450 3A4 = Cytochrome P450 3A4 (Homo sapiens, UniProt P08684); test: Inhibition of CYP3A4 (unknown origin); type: ADME
Cytochrome P450 3A4, sequence (P08684 whole entry): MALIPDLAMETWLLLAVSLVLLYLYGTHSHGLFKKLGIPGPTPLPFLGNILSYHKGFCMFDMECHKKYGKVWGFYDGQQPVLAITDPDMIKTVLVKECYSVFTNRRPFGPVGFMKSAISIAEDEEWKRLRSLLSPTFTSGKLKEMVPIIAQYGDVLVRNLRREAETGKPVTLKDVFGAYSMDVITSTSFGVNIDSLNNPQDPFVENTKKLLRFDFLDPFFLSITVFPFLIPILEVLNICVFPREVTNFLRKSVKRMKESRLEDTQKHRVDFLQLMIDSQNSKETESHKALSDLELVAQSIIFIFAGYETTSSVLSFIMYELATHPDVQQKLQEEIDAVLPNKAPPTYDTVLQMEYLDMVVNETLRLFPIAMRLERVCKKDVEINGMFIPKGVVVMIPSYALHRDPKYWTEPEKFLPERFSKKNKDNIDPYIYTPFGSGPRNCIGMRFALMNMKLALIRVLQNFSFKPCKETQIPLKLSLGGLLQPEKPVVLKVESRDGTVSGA

Serine/threonine-protein kinase ATR, sequence (Q13535 whole entry): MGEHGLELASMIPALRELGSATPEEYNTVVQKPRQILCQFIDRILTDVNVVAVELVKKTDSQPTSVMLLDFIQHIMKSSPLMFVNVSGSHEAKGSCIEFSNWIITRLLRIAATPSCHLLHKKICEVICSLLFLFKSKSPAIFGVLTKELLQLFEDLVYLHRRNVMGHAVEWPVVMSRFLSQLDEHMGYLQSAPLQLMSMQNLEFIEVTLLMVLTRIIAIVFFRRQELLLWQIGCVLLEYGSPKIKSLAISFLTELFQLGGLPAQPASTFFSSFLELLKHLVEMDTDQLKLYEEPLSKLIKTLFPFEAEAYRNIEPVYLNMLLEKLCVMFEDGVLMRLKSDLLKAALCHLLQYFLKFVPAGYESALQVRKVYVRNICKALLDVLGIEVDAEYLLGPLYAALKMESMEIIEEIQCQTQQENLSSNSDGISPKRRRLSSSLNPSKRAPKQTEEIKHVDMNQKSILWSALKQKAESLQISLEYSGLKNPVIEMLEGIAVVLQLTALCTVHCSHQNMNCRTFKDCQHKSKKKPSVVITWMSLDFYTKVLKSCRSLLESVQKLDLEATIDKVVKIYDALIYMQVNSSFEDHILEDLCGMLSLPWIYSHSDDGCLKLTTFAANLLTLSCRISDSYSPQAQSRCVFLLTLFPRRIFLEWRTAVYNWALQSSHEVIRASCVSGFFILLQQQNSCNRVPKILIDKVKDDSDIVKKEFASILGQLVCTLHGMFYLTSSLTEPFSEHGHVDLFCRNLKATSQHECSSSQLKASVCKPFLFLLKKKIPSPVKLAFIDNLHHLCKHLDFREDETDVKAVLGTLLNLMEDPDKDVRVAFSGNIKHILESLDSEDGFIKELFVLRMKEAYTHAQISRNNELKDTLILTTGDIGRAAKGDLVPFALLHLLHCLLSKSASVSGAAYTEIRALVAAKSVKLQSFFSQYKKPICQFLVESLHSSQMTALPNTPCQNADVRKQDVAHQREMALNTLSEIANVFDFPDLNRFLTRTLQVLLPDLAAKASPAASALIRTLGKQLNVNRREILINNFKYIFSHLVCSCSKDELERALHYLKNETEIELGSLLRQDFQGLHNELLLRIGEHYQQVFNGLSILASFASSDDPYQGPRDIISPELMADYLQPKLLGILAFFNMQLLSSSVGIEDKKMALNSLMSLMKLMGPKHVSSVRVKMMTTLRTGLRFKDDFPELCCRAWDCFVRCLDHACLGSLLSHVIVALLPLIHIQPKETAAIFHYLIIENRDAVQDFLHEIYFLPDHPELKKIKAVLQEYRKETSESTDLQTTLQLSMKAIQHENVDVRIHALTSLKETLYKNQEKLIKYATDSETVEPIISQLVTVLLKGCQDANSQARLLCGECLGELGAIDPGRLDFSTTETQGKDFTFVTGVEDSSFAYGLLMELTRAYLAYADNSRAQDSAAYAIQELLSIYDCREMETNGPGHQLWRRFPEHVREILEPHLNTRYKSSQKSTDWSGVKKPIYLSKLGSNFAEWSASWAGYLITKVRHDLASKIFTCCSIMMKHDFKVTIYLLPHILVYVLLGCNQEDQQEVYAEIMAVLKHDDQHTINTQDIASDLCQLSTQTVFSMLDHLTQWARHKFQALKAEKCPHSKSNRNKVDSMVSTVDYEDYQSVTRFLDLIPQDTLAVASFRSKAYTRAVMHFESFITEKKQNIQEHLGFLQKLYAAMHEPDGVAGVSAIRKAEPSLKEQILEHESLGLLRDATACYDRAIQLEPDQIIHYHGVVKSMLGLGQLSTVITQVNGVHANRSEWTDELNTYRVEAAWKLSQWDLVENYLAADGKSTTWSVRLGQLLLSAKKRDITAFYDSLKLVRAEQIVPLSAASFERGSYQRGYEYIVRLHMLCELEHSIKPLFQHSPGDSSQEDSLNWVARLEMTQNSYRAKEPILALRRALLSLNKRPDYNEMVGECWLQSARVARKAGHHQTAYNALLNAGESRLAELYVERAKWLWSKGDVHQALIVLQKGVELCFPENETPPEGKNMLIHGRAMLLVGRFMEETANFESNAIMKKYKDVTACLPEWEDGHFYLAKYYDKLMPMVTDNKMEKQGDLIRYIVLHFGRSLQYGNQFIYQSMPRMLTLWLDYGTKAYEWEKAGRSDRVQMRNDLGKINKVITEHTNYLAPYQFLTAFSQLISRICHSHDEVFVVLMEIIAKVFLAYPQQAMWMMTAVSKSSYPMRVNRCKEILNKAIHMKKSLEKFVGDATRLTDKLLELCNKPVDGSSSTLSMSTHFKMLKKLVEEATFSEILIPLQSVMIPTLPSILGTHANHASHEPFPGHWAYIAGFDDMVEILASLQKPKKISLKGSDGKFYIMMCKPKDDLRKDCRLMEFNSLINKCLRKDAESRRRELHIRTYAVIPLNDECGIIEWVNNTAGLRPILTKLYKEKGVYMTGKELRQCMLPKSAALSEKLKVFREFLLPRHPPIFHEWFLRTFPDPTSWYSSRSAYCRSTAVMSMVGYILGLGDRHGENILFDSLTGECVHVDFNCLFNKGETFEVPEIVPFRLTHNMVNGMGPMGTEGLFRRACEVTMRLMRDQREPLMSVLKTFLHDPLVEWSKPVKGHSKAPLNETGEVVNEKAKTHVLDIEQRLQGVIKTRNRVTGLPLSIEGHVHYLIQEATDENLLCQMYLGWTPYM

SMILES: CNc1nc2ccccc2n1-c1nc(N2CCOC[C@H]2C)c2scc(S(C)(=O)=O)c2n1
- Cmax [1]: 1140 ng/mL
- IC50 [2]: 58.8 nM
- C0 at 24 h [3]: 1310 ng/mL
- Cmax [4]: 1270 ng/mL
- MRT [5]: 58.2 min
- inhibition in vivo at 50 mg/kg (LoVo [6]): 55%
- AUC(0-t) at 24 h [7]: 954 ng·h/mL
- Activity [8]: Toxic
- inhibition (INH) (Cytochrome P450 1A2): Not Active
- CL [9]: 1041 mL/kg/h
- IC50 [10]: 25.3 nM
- IC50 [11]: 1.5 nM
- MRT inf [12]: 6.2 h
- Activity [13]: Toxic
- IC50 (HT-29 [14]): 3 nM
- half-life [15]: 304 min
- IC50 (HT-29 [16]): 161 nM
- Tmax [17]: 4.8 min
- half-life [18]: 93.6 min
- MRT last at 24 h [19]: 5.3 h
- bioavailability [20]: 46%
- IC50 (LoVo [21]): 73 nM
- MRT last at 24 h [22]: 53.4 min
- Activity [23]: Non-Toxic
- Vdss [24]: 2371 mL/kg
- AUC(0-t) at 24 h [25]: 4300 ng·h/mL
- AUC(0-inf) [26]: 4420 ng·h/mL
- LD50 at 336 h [27]: 2000 mg/kg
- inhibition in vivo at 50 mg/kg (LoVo [28]): 32%
- Tmax [29]: 15 min
- AUC(0-inf) [30]: 962 ng·h/mL
- inhibition (INH) (Cytochrome P450 3A4): Not Active
